Experiments:
[1] = Solubility of the cocrystal in heptane; assay type: physicochemical
Source text: A drug-in-adhesive transdermal patch of the invention may be manufactured using methods known in the art. The 4:3 naltrexone: 5-methyl-2-furaldehyde cocrystal particles may be incorporated into the drug-in-adhesive layer also using known methods such as melt blending. The 4:3 naltrexone: 5-methyl-2-furaldehyde cocrystal particles may be dispersed in a liquid in which the cocrystal is not soluble or only sparingly soluble (a “non-solvent”) and then added to a solution of the other drug-in-adhesive layer components in that same liquid. Alternatively, the 4:3 naltrexone: 5-methyl-2-furaldehyde cocrystal particles may be dispersed into the solution of the drug-in-adhesive components itself. Use of a non-solvent ensures that the cocrystal retains its crystalline form while forming the drug-in-adhesive layer. For the 4:3 naltrexone: 5-methyl-2-furaldehyde cocrystal, such a liquid will generally be a non-polar organic solvent. An example of such a solvent is heptane in which the 4:3 naltrexone: 5-methyl-2-furaldehyde cocrystal has a solubility of only 0.1 mg/mL at 5° C. and of 0.2 mg/mL at 50° C. Alternatively, the 4:3 naltrexone: 5-methyl-2-furaldehyde cocrystal particles may be incorporated into the drug-in-adhesive layer also using known methods such as melt blending.

[2] = Dynamic vapor sorption (DVS) analysis, Hiden IGAsorp; assay type: physicochemical
Experimental: Approximately 10 mg of sample was placed into a mesh vapor sorption balance pan and loaded into a Hiden IGAsorp by Hiden. The sample was subjected to a ramping profile from 40-90% relative humidity (RH) at 10% increments, maintaining the sample at each step until a stable weight had been achieved (99.5% step completion). After completion of the sorption cycle, the sample was dried using the same procedure to 0% RH the sample was then subsequently taken back to 40% RH using the same procedure.
A DVS analysis of the 4:3 naltrexone: 5-methyl-2-furaldehyde cocrystal was performed using Hiden IGAsorp method.

[3] = Skin flux evaluation, Franz Cell Diffusion method; assay type: in vitro ADME, human; details: film without lidocaine (n=7) vs patch with lidocaine, 32° C., 72-hour period
Experimental: The diffusion of lidocaine API and naltrexone from the 4:3 naltrexone: 5-methyl-2-furaldehyde cocrystal in the transdermal patch to the skin was studied using a Franz Cell Diffusion (FCD) method. In the method, transdermal patches were placed on top of heat-separated human cadaver skin. The receptor solution (0.01M phosphate buffer, pH 5.76) was analyzed for lidocaine and naltrexone content over time by HPLC using the methods discussed above. In one set of experiments the method used four transdermal patches (n=4) and was carried out at 32° C. […] In another set of experiments a similar film was prepared as above without lidocaine (Dow Medical Fluid 100-5%/Dow 7-4201-88%/NTX-Co-7%). NTX-Co transdermal flux (n=7) was measured through heat-separated human cadaver skin using Franz Cell Diffusion cells at 32° C.

For “4:3 naltrexone: 5-methyl-2-furaldehyde cocrystal”, the solubility in heptane ([1]; 5° C.) was 100 µg/mL, the solubility in heptane ([1]; 50° C.) was 200 µg/mL and the “hygroscopicity (DVS)” value ([2]; DVS kinetic analysis) was “not hygroscopic”. For the same substance, the “XRPD pattern of material reclaimed after DVS experiment” value ([2]; after DVS cycle, compared with FIG. 1) was “same XRPD pattern as in FIG. 1”, the “mass change (DVS)” value ([2]; ramping 40-90% RH, drying to 0% RH, back to 40% RH) was < 3% and the transdermal flux [3] was “lower in the absence of lidocaine”.
